Results: ChEMBL document CHEMBL1140525, “Conformationally restricted macrocyclic analogues of combretastatins” (Bioorg Med Chem Lett, 2007)

biological target: Tubulin; assay: Inhibition of tubulin polymerization; assay type: protein-complex assay, Homo sapiens

SMILES | IC50
COc1ccc([C@@H]2OCO[C@H]2c2cc(OC)c(OC)c(OC)c2)cc1O | 4 µM
COc1ccc([C@@H](O)[C@H](O)c2cc(OC)c(OC)c(OC)c2)cc1O | > 40 µM
COc1ccc(C[C@@H](O)c2cc(OC)c(OC)c(OC)c2)cc1O [COMBRETASTATIN] | 5 µM
COc1ccc([C@H]2OCO[C@@H]2c2cc(OC)c(OC)c(OC)c2)cc1O | > 50 µM
COc1ccc(/C=C\c2cc(OC)c(OC)c(OC)c2)cc1 | 2.2 µM
COc1ccc([C@H](O)[C@@H](O)c2cc(OC)c(OC)c(OC)c2)cc1O | 22 µM

biological target: T1, Tubulin (Homo sapiens) (UniProt P68371+Q9H4B7+P0DPH7+P68366+Q13509+Q71U36+P04350+Q3ZCM7+P07437+P68363+Q9BQE3+Q6PEY2+Q13885+Q9BVA1+Q9BUF5); assay: Inhibition of tubulin polymerization at 30 uM; assay type: protein-complex assay

SMILES | inhibition
COc1cc2cc(OC)c1OCCOCCOc1ccc(cc1)/C=C\2 | 0%

biological target: T1, Tubulin (Homo sapiens); assay: Inhibition of tubulin polymerization at 40 uM; assay type: protein-complex assay

SMILES | inhibition
COc1cc2cc(OC)c1OCCCCCCOc1ccc(cc1)[C@H](O)[C@H]2O (relative stereo) | 4%
COc1cc2cc(OC)c1OCCOCCOc1ccc(cc1)[C@H](O)[C@H]2O | 0%
COc1cc2cc(OC)c1OCCCCCCOc1ccc(cc1O)/C=C\2 | 0%
COc1cc2cc(OC)c1OCCOCCOc1ccc(cc1OC(C)=O)[C@H](OC(C)=O)[C@H]2OC(C)=O (relative stereo) | 0%
COc1cc2cc(OC)c1OCCOCCOc1ccc(cc1)[C@H](OC(C)=O)[C@H]2OC(C)=O (relative stereo) | 0%
COc1cc2cc(OC)c1OCCCCCCOc1ccc(cc1)[C@H](OC(C)=O)[C@H]2OC(C)=O | 0%
COc1cc2cc(OC)c1OCCOCCOc1ccc(cc1OC(C)=O)[C@@H](OC(C)=O)[C@H]2OC(C)=O (relative stereo) | 0%
COc1cc2cc(OC)c1OCCOCCOc1ccc(cc1)[C@@H](O)[C@H]2O (relative stereo) | 0%
COc1cc2cc(OC)c1OCCCCCCOc1ccc(cc1)/C=C\2 | 60%
COc1cc2cc(OC)c1OCCOCCOc1ccc(cc1O)[C@H](O)[C@H]2O (relative stereo) | 1%
COc1cc2cc(OC)c1OCCOCCOc1ccc(cc1)[C@@H]1OC(C)(C)O[C@H]21 | 0%
COc1cc2cc(OC)c1OCCOCCOc1ccc(cc1O)[C@@H](O)[C@H]2O (relative stereo) | 11%
COc1cc2cc(OC)c1OCCOCCOc1ccc(cc1)[C@@H](OC(C)=O)[C@H]2OC(C)=O (relative stereo) | 0%
COc1cc2cc(OC)c1OCCCCCCOc1ccc(cc1OC(C)=O)[C@H](OC(C)=O)[C@H]2OC(C)=O (relative stereo) | 2%

biological target: T1, Tubulin (Homo sapiens); assay: Inhibition of tubulin polymerization at 10 uM; assay type: protein-complex assay

SMILES | inhibition
COc1cc2cc(OC)c1OCCCCCCn1ccc3cc(ccc31)/C=C\2 | 19%

biological target: T1, Tubulin (Homo sapiens); assay: Inhibition of tubulin polymerization at 20 uM; assay type: protein-complex assay

SMILES | inhibition
COc1cc2cc(OC)c1OCCCCCCn1ccc3cc(ccc31)[C@H](OC(C)=O)[C@H]2OC(C)=O | 8%
COc1cc2cc(OC)c1OCCCCCCn1ccc3cc(ccc31)[C@H](O)[C@H]2O | 9%
COc1cc2cc(OC)c1OCCCCCCn1ccc3cc(ccc31)[C@@H](OC(C)=O)[C@H]2OC(C)=O | 9%
COc1cc2cc(OC)c1OCCCCCCn1ccc3cc(ccc31)[C@@H](O)[C@H]2O | 11%
